From article PMC3479105, “K-134, a Phosphodiesterase 3 Inhibitor, Prevents Brain Damage by Inhibiting Thrombus Formation in a Rat Cerebral Infarction Model” (PLoS ONE, 2012)
Read-outs that look alike come from different tables or passages of the source. Marks after values point to notes of the source that are not given here.

Tests used:
[1] = test system: PDE2; set-up: method as in PMID 10644042; settings: read-out: IC50 toward PDE2; cited from earlier work
[2] = test system: rat platelet aggregation; assay: Rat platelet aggregation in vitro (PRP, aggregometer); assay type: cell-based
Protocol: Platelet-rich plasma (PRP) was prepared by centrifugation (900 rpm, 15 min, at room temperature) of blood (05PR-22 centrifuge with a 03 rotor; Hitachi, Ltd., Tokyo, Japan), and the platelet count was adjusted to 5×10^5/µL with platelet-poor plasma prepared by centrifugation (3000 rpm, 10 min, at room temperature). PRP was incubated with antiplatelet agents at 37°C for 3 min and stimulated with collagen (final concentration, 15 µg/mL; MC Medical Inc., Tokyo, Japan) or adenosine diphosphate (ADP) (final concentration, 7.5 µM; MC Medical Inc.) (n = 5). Platelet aggregation was quantified by measuring the area under the curve (AUC) during the 5-min period after addition of trigger using a light transmittance aggregometer (PAM-8C; Mebanix Co., Ltd., Tokyo, Japan).

[3] = Plasma concentration in rat arteriovenous shunt model; assay type: in vivo; settings: SD, n = 6
Description: (§1) Immediately after a single oral administration of the test compound, SD rats were anesthetized by subcutaneous injection of 1.2 g/kg of urethane (n = 12). Ninety minutes after oral administration of a single dose of K-134 or cilostazol, one end of a polyethylene catheter (size 3, 24 cm; Hibiki, Tokyo, Japan) filled with physiological saline was inserted into the left jugular vein, with the other end of the catheter inserted into the right common carotid artery to create a loop. The end of the catheter was removed from the jugular vein 4 h after creation of the loop. A thrombus was then regarded to have been formed when blood no longer ran from the catheter. […] The serum concentrations of K-134 and cilostazol were determined by high-performance liquid chromatography (HPLC).

[4] = test system: arteriovenous shunt thrombus formation; assay: Arteriovenous shunt thrombosis model; assay type: in vivo, rat; settings: for Occluded/Total: n = 12, control 11/12; for Occlusion (%): control 92; for ED50: Rattus norvegicus, rats, single oral dose 90 min before creation of the arteriovenous shunt, read-out: ED50, incidence of occlusive shunt thrombi
Description: as §1

[5] = test system: PDE3A; set-up: method as in PMID 10644042; settings: read-out: IC50 toward PDE3A; cited from earlier work
[6] = test system: PDE3B; set-up: method as in PMID 10644042; settings: read-out: IC50 toward PDE3B; cited from earlier work
[7] = test system: photothrombotic middle cerebral artery (MCA) occlusion; assay: Photothrombotic MCA occlusion time in rat stroke model; assay type: in vivo; settings: SD rats, n = 12, control 4.1±0.4 min
Protocol: (§2) Brain infarction was produced by photothrombotic MCA occlusion essentially as reported previously. K-134 and cilostazol were administered to SD rats 2 h and 3 h before irradiation for MCA occlusion, respectively (n = 12), because K-134 reached plasma peak levels at 1–2 h, and cilostazol and its active metabolites (OPC-13015 and OPC-13213) reached at >3 h (Table S1) after oral administration in conscious male SD rats under fed conditions. Rats were anesthetized by intraperitoneal administration of 50 mg/kg of sodium pentobarbital (Kyoritsu Pharmaceutical Co., Ltd., Nara, Japan). Then, a polyethylene catheter for administration of rose bengal was placed in the left femoral vein. Rats were mounted on a brain stereotactic apparatus, and body temperature was maintained at 37°C with a heating pad. The left temporalis muscle was partially cut after incision of the scalp, and craniotomy was performed using a dental drill under an operating microscope. The fiber of a xenon lamp (Model L-4887; Hamamatsu Photonics Co., Ltd., Shizuoka, Japan) was placed on the MCA for irradiation (wavelength: 540 nm, 800000 lux), and the probe of the laser Doppler flow meter (ALF21R; Advance Co., Ltd., Tokyo, Japan) was placed on the MCA distal to the fiber. After 2 min of irradiation, rose bengal (25 mg/kg/mL; Sigma Aldrich Co., MO, USA) was injected for the next 2 min. The MCA was continuously irradiated for 8 min. Blood flow was measured for 18 min from the commencement of irradiation. The MCA occlusion time was determined from blood flow data. When blood flow continued beyond the observation period, the occlusion time was regarded as 16 min. After surgery, the incision site was closed with sutures, and rats were returned to their cages.

[8] = test system: PDE4; set-up: method as in PMID 10644042; settings: read-out: IC50 toward PDE4; cited from earlier work
[9] = Electron spin resonance (ESR) radical scavenging; settings: ESR experiments, data not shown
Description: In the photothrombotic cerebral infarction model, photoactivation of rose bengal by illumination with green light results in reactive oxygen intermediates (predominantly singlet oxygen and superoxide). […] Therefore, we concluded that the observed inhibitory effects of K-134 on photothrombosis in this model are relevant to its antiplatelet activity but not radical scavenging activity.

[10] = test system: photothrombotic cerebral infarction model; assay: Infarct volume 24 h after photothrombotic MCA occlusion; assay type: in vivo, rat; settings: for infarct volume: 24 h after MCA occlusion, control 131.4±18.9 mm^3; for bleeding in the cerebrum observed macroscopically: rats treated with K-134 and cilostazol in photothrombotic stroke model
Protocol: as §2
Twenty-four hours after MCA occlusion, rats were sacrificed by an overdose of pentobarbital and cutting an abdominal vein. The brain was immediately removed, cooled with cold spray (Pip Co., Ltd., Osaka, Japan), and cut into six slices (2 mm thick) using a slicer (RBSC-02; Neuro Science Inc., Tokyo, Japan) and razor (FA-10; Feather Razor, Co., Ltd., Osaka, Japan). The cutting base point (0 mm) was set at the position of bregma, and brains were cut at −2, −4, 0, +2, +4, +6, +8 mm from the base point. The brain slices were stained with 1% (w/v) 2,3,5-triphenyl-2H-tetrazolium chloride (TTC; Tokyo Chemical Industry Co., Ltd., Tokyo, Japan) in saline solution at 37°C for 20 min. The stained slices were photographed with a digital camera (CAMEDIA E-10; Olympus Co., Ltd., Tokyo, Japan). Whole brain areas and infarcted areas were quantified by image analysis (Win ROOF; Mitani Co., Ltd., Tokyo, Japan), and infarct volume were calculated with the trapezoidal rule.

[11] = test system: PDE5; set-up: method as in PMID 10644042; settings: read-out: IC50 toward PDE5; cited from earlier work
[12] = ADP 7.5 µM, n = 5, read-out: IC50, rat platelet aggregation induced by ADP
[13] = collagen 15 µg/mL, n = 5, read-out: IC50, rat platelet aggregation induced by collagen

SMILES | IC50 [1] | IC50 [2, 12] | IC50 [2, 13] | Inhibition (%) of arteriovenous shunt thrombus formation ([4]; 10 mg/kg single oral dose) | Occluded/Total ([4]; 10 mg/kg single oral dose) | Occlusion (%) ([4]; 10 mg/kg single oral dose) | Inhibition (%) of arteriovenous shunt thrombus formation ([4]; 30 mg/kg single oral dose) | Occluded/Total ([4]; 30 mg/kg single oral dose) | Occlusion (%) ([4]; 30 mg/kg single oral dose) | ED50 [4] | IC50 [5] | IC50 [6] | IC50 [8] | scavenging activities against singlet oxygen and superoxide anion radical [9] | bleeding in the cerebrum observed macroscopically [10] | IC50 [11] | also measured
O=C(NCCCOc1ccc2[nH]c(=O)ccc2c1)N(C1CC1)[C@@H]1CCCC[C@H]1O [K-134] | > 300 µM | 3.2 µM | 2.5 µM | 64% | 4/12* | 33% | 64% | 4/12* | 33% | 11 mg/kg | 0.1 µM | 0.28 µM | > 300 µM | did not show scavenging activities | No bleeding | 12.1 µM | Cmax ([3]; 10 mg/kg oral): 430 ± 80 nM; Inhibition (%) of arteriovenous shunt thrombus formation ([4]; 3 mg/kg single oral dose): 18%; Occluded/Total ([4]; 3 mg/kg single oral dose): 9/12; Occlusion (%) ([4]; 3 mg/kg single oral dose): 75%; MCA occlusion time ([7]; 10 mg/kg oral preadministration, mean ± SEM): 7.9 ± 1.1 min; MCA occlusion time ([7]; 30 mg/kg oral preadministration, mean ± SEM): 9.1 ± 1.6 min; infarct volume ([10]; 10 mg/kg oral, not significant): 92.0±14.7 mm^3; infarct volume ([10]; 30 mg/kg oral, significant): 62.1±12.9 mm^3
O=C1CCc2cc(OCCCCc3nnnn3C3CCCCC3)ccc2N1 [cilostazol] | 45.2 µM | 83 µM | 42 µM | 37% | 7/12 | 58% | 64% | 4/12* | 33% | 18 mg/kg | 0.2 µM | 0.38 µM | 88 µM | did not show scavenging activities | No bleeding | 4.4 µM | Cmax ([3]; 30 mg/kg oral): 2080 ± 280 nM; Inhibition (%) of arteriovenous shunt thrombus formation ([4]; 100 mg/kg single oral dose): 73%; Occluded/Total ([4]; 100 mg/kg single oral dose): 3/12**; Occlusion (%) ([4]; 100 mg/kg single oral dose): 25%; MCA occlusion time ([7]; 300 mg/kg oral preadministration, not statistically significant): 6.9 ± 1.3 min; infarct volume ([10]; 300 mg/kg oral, not significant): 95.8±14.8 mm^3
